Test results as given in patent publication US12440475B2, “Hodgkin lymphoma therapy” (priority 2016, dated 2025).
Values joined by “and” are separate entries in the source; they are usually repeats but may differ in a detail not shown here. Equal values may be shown once.

Tests used:
L540 = assay: Mitotic index, L540; format: cell-based, human
Description: (§1) The mitotic index and chromosomal aberrations for each of the cell lines were evaluated after treatment with either 20 μmol or 10 μmol EDO-S101 in DMSO. Each cell line was cultured at 37° C. in the presence of RPMI 1640 supplemented with 10% FCS and antibiotics. Colcemid (0.1 ug/ml) was added 2 h before harvesting and slides with chromosomes in metaphase were prepared following the standard methanol/acetic acid (3/1, v/v) procedure. The slides were stored at −20° C. until use.
(§2) FISH was performed using a combination of standard procedures from the recommended protocols for chromosome analysis, following telomere and centromere staining, using PNA probes. In all, 100 metaphases were scored per in vitro dose exposure.
(§3) The mitotic index was determined by measurement of the sum of all cells in prophase, metaphase, anaphase and telophase divided by the total number of cells.

L428 cells [1] = assay: L428 xenograft in NSG mice, histopathology (HE staining and CD30 immunohistochemistry); format: in vivo; design: key to Liver, Tumor cell infiltration, focal/multifocal (score per animal) / Liver, Tumor cell necrosis/Apoptosis (score per animal) / Eye and/or periocular mucosa, periocular tumor cell infiltration, focal/multifocal/diffuse (score per animal) / Tumor/Eye, Tumor cell necrosis/appotosis (score per animal): 0: within physiological limits; 1: minimal; 2: mild; 3: moderate; 4: marked; 5: severe
Excerpt: Immunodeficient NOD-SCID-gammac−/− (NSG) mice aged 5 to 6 weeks were purchased from Charles River (NOD.Cg-Prkdcscid II2rgtm1Wjl/SzJ). The mice arrived two weeks before the beginning of the experiments and were housed in micro-isolator cages during the entire course of the study. Immediately prior to the injection of Hodgkin lymphoma cells, mice were exposed to 3 Gy gamma irradiation using an IBL637 ^137Cs irradiator at a dose rate of 0.61 Gy/min. From 10^3 to 10^6 cells, either from the original cell lines or following amplification, were injected intravenously via the retro-orbital sinus. The mice were sacrificed by cervical dislocation and different organs were analysed and tumoural infiltration examined using multiple techniques.
Two independent experiments were performed to investigate the dose-effect of EDO-S101 in NSG mice eight weeks after xenografting with L428 cells as in Example 8. The aim of the protocol shown in FIG. 8B was to evaluate the effect of sequential treatment with a moderate dose of 60 mg/kg given at an interval of three weeks.
The mice were sacrificed by cervical dislocation. The sampled organs consisted of the eyes (site of injection), liver, spleen and bone marrow. Following dissection of different organs, including tumours, the first portion was used for flow cytometry (FACS) and cytogenetic analyses while the second was fixed in 4% paraformaldehyde (PFA) for immunohistochemistry (IHC). To obtain a single cell suspension, the tissues were first cut into pieces. Thereafter, the cells were physically disaggregated using an 80 μm nylon cell strainer and filtered a second time through a 70 μm nylon cell strainer (BD Biosciences, Erembodegem, Belgium).
Organs were fixed in 4% PFA, trimmed and post-fixed in 70° ethanol. They were then briefly processed using a vacuum inclusion processor and paraffin blocks were prepared. Five micrometer-thick sections were cut from these blocks and the resulting sections were stained with hemotoxylin-eosine (H&E) for histopathological analysis. In addition, IHC was carried out on of the totality of liver and spleen specimens for confirmation of the spread of engrafted cells. The search for single cells or small groups of grafted Hodgkin lymphoma cells was performed using an anti-CD30 antibody (DAKO, France; 1:40, EDTA pH9 pre-treatment) and the Ventana Discovery XT IHC system. Apoptosis and tumour necrosis were analysed.
Microscopic findings were assigned a severity score based upon the following scale: “0”=within physiological limits, “1”=minimal, “2”=mild, “3”=moderate, “4”=marked, “5”=severe. This severity score was attributed according to the size and number of observed lesions.

L428 cells [2] = assay: Cytogenetic analysis of cells from xenografted mice; format: in vivo, NSG mice; conditions: different doses, including a single dose of 60 mg/kg
Description: Separated cells were cultured in the presence of RPMI 1640 supplemented with 10% Fetal Calf Serum (FCS) and antibiotics, colcemid (0.1 μg/ml) added 2 h before harvesting, and the slides with metaphase chromosomes prepared following the standard methanol/acetic acid (3/1, v/v) procedure.
Four new cell lines were generated after one month of in vitro culture following 24 hour of exposure to EDO-S101. Fluorescence in situ hybridysation (FISH) was performed using a combination of standard procedures from the recommended protocols for chromosomal analysis, following telomere and centromere staining, using peptide nucleic acid (PNA) probes in order to detect unstable chromosomal aberrations and to delimit the chromosome territory. M-FISH was performed using multi-FISH probes (Metasystems GmbH, Altlussheim, Germany), according to the manufacturer's recommendations on the same slide. Images of hybridized metaphases were captured using a charge coupled device camera (Zeiss, Thornwood, NY) coupled to a Zeiss Axioplan microscope and processed using ISIS software (Metasystems).
The ocular tumour masses were harvested, as well as cells which infiltrated the liver. Five new cell lines were established from ocular tumours and the livers of both control mice (PBS or vehicle). […]

[3] = system: Hodgkin lymphoma cell lines; assay: Mitotic index and metaphases after EDO-S101 treatment, all cell lines; format: cell-based, human
Description: as §1, §2, §3

KMH2 = assay: Mitotic index and chromosomal aberrations, KMH2; format: cell-based, human
Description: as §1, §2, §3

[4] = system: Hodgkin lymphoma cell lines (KMH2, HDML2, L540, L1236 and L426); assay: IC50 comparison of bendamustine, vorinostat and EDO-S101, five cell lines; format: cell-based, human
Description: • (a) Five Hodgkin lymphoma cell lines (KMH2, HDML2, L540, L1236 and L426) were cultured separately in the presence of bendamustine, vorinostat and EDO-S101 dissolved in DMSO at 37° C. L1236-derived Hodgkin lymphoma cell lines were selected as they have an acquired stable resistance to bendamustine (R100) or an ability to display continuous growth upon extended exposure to sub-lethal concentrations of bendamustine (R25, R50 and R75). A detailed description of the L1236-R Hodgkin lymphoma cell lines is disclosed in De Filippi et al, ASH 2015, Abstract. #2479. In these tests, the L1236-100R bendamustine resistant strain was used. […] Control cells were cultured in the same final concentration of DMSO. The number of viable cells was assessed at 24, 48 and 72 hours through a Countess™ automated cell counter (Invitrogen), each experiment being repeated three times and the results given being the mean of the three results±SD.

## Cn1c(CCCCCCC(=O)NO)nc2cc(N(CCCl)CCCl)ccc21 [EDO-S101]
L540
  mitotic index: very low mitotic index
L428 cells [1]; 80 mg/kg
  tumour masses in liver: No tumour masses were observed in the liver
L428 cells [1]; 80 mg/kg or 60 mg/kg
  tumour cell degeneration (necrosis/apoptosis): No cell necerosis was observed
L428 cells [1]; 1*60 mg/kg, 60 mg/kg
  Eye and/or periocular mucosa, periocular tumor cell infiltration, focal/multifocal/diffuse (score per animal): 5 and 4 (2×) and 3
  Liver, Tumor cell infiltration, focal/multifocal (score per animal): 2 and 1 and 3
  Tumor/Eye, Tumor cell necrosis/appotosis (score per animal): 0 (2×) and 1 (2×)
L428 cells [1]; 1*80 mg/kg
  Eye and/or periocular mucosa, periocular tumor cell infiltration, focal/multifocal/diffuse (score per animal): 5
  Tumor/Eye, Tumor cell necrosis/appotosis (score per animal): 1
L428 cells [1]; 2*60 mg/kg
  Eye and/or periocular mucosa, periocular tumor cell infiltration, focal/multifocal/diffuse (score per animal): 4
  Liver, Tumor cell necrosis/Apoptosis (score per animal): 0
  Tumor tissue, without connection to other organs (per animal): yes
L428 cells [1]; 2*60 mg/kg, 60 mg/kg
  Liver, Tumor cell infiltration, focal/multifocal (score per animal): 1 (3×) and 0 and 2
  Tumor/Eye, Tumor cell necrosis/appotosis (score per animal): 4 and 2 (2×)
L428 cells [1]; single dose of 60 mg/kg
  tumour regression: significant tumour regression
L428 cells [1]; single injection 60 or 80 mg/kg, or two injections of 60 mg/kg three weeks apart
  severity of tumoural cell infiltration: significant decrease in the severity of tumoural cell infiltration
L428 cells [1]; two administrations of 60 mg/kg three weeks apart, versus control and single 60 mg/kg
  tumour regression: Significant tumour regression
L428 cells [2]
  metaphases and cell lines from cells of treated mice: not possible to obtain either metaphases from direct culture or establish cell lines
[3]; 10 μmol
  metaphases observed: only a few metaphases of poor quality
[3]; 20 μmol, any cell line
  metaphases observed: No metaphases were observed
[3]; all Hodgkin lymphoma cell lines, 24 h of treatment
  sensitivity in mitotic index assay: remarkably high sensitivity
KMH2
  mitotic index: very low mitotic index
KMH2; telomere and centromere staining
  chromosomal aberrations in metaphase: numerous chromosomal aberrations
[4]; Homo sapiens, range over all cell lines tested, including L1236-R
  IC50: 1000 to 2000 nM
[4]; tumour cells of Hodgkin lymphoma
  IC50s relative to bendamustine: about ten-fold lower than those of bendamustine
